Laboratory results published in patent US11260072B2, “MicroRNA-based methods and assays for osteocarcinoma” (3-D Matrix, Ltd., priority 2011, dated 2022).
Entries after “also recorded” stand apart in the source; their conditions may differ.

Experiments:
[1] = test system: 143B-luc; assay: spontaneous lung metastasis model of osteosarcoma (143B-luc implanted orthotopically into tibia); format: in vivo, athymic nude mice
Experimental: Tumor transplantation experiments. Animal experiments were performed in compliance with the guidelines of the Institute for Laboratory Animal Research, National Cancer Center Research Institute. Athymic nude mice or NOD/SCID mice (CLEA Japan) were purchased at 4 weeks of age and given at least 1 week to adapt to their new environment prior to tumor transplantation. On day 0, mice were anesthetized with 3% isoflurane and the right leg disinfected with 70% ethanol. Cells were aspirated into a 1 mL tuberculin syringe fitted with a 27-G needle. The needle was inserted through the cortex of the anterior tuberosity of the tibia with a rotating movement to avoid cortical fracture. Once the bone was traversed, the needle was inserted further to fracture the posterior cortex of the tibia. A 100 μL volume of solution containing freshly isolated CD133^high and CD133^low HOS-Luc (10^2, 10^3, 10^4, 10^5 cells per site) or 143B-Luc (1.5×10^6) was injected while slowly moving back the needle.
(§1) Monitoring tumor growth, lung metastasis, and toxicity with/without LAN-anti-miR-133a. For the assessment of tumorigenicity between CD133^high and CD133^low HOS-Luc cells, NOD/SCID mice were injected with D-luciferin (150 mg/kg, Promega) by intraperitoneal injection. Ten minutes later, photons from firefly luciferase were counted using the IVIS imaging system (Xenogen Corp.) according to the manufacturer's instructions. Each experimental condition included 5 animals per group and monitoring once a week. For the evaluation of LNA-anti-miR-133a administration into spontaneous lung metastasis of osteosarcoma model mice, individual mice were injected with 10 mg/kg of LNA-anti-miR-133a or saline via the tail vain. LNA were injected on following days 4, 11, 18, 25, 32 postinoculation of 143B-Luc cells. Each experimental condition included 10 animals per group. The development of subsequent lung metastasis was monitored once a week in vivo by the bioluminescent imaging described above for 5 weeks. All data were analyzed using LivingImage software (version 2.50, Xenogen). On day 36, the primary tumor and lung in 5 mice of each group were resected at necropsy for their weight, bioluminescent, and histological analyses. The blood examination, weight of whole body as well as heart, liver, and skeletal muscle, and histopathological examination were performed for the assessment of toxicity.
To extend the in vitro findings and to determine whether silencing of miR-133a could be an effective therapeutic option for osteosarcoma treatment, the effect of LNA-133a on a spontaneous lung metastasis model of osteosarcoma was examined. Experimentally, 1.5×10^6 cells of 143B transfected with firefly luciferase gene (143B-luc) were implanted orthotopically into the right proximal tibia of athymic nude mice. The implanted tumor growth and the presence of distant metastases were analyzed weekly for luciferase bioluminescence using an in vivo imaging system (IVIS). […] To assess the efficacy of the new treatment protocol, results were compared with three control groups (n=10 each): a saline control group, an LNA group, and a CDDP group. At 5 weeks, half the mice in each group were euthanized for further analysis; the remaining mice were monitored for survival.

[2] = assessment of toxicity in LNA-treated tumor-bearing mice; format: in vivo; conditions: during the observation period
Experimental: as §1

[3] = test system: miR-133a; assay: miR-133a expression in 143B-luc tumors (qRT-PCR); format: in vivo, human; conditions: vs saline-treated mice
Description: RNA isolation and quantitative real-time RT-PCR of mRNAs and miRNAs. Total RNA was purified from cells and tumor tissues with an RNeasy Mini Kit and RNase-Free DNase Set (QIAGEN). For quantitative polymerase chain reaction (qPCR) of mRNAs, cDNA was synthesized using High-Capacity cDNA Reverse Transcription Kit (Applied Biosystems). For each qPCR reaction, equal amounts of cDNA were mixed with Platinum SYBER Green qPCR SuperMix (Invitrogen) and specific primers (Table 1). Gene expression levels were normalized by beta actin (ACTB) or glyceraldehyde 3-phosphate dehydrogenase (GAPDH). For qPCR of miRNAs, miRNA was converted to cDNA using the TaqMan MicroRNA Reverse Transcription Kit (Applied Biosystems). […]
To extend the in vitro findings and to determine whether silencing of miR-133a could be an effective therapeutic option for osteosarcoma treatment, the effect of LNA-133a on a spontaneous lung metastasis model of osteosarcoma was examined. […] The implanted tumor growth and the presence of distant metastases were analyzed weekly for luciferase bioluminescence using an in vivo imaging system (IVIS). […] At 5 weeks, half the mice in each group were euthanized for further analysis; the remaining mice were monitored for survival.

[4] = test system: miR-133a; assay: silencing of miR-133a in LNA-transfected CD133high cells (real-time RT-PCR); format: cell-based, human; conditions: CD133high SaOS2 and HOS cells, LNA 30 nM
Description: (§2) RNA isolation and quantitative real-time RT-PCR of mRNAs and miRNAs. Total RNA was purified from cells and tumor tissues with an RNeasy Mini Kit and RNase-Free DNase Set (QIAGEN). For quantitative polymerase chain reaction (qPCR) of mRNAs, cDNA was synthesized using High-Capacity cDNA Reverse Transcription Kit (Applied Biosystems). For each qPCR reaction, equal amounts of cDNA were mixed with Platinum SYBER Green qPCR SuperMix (Invitrogen) and specific primers (Table 1). Gene expression levels were normalized by beta actin (ACTB) or glyceraldehyde 3-phosphate dehydrogenase (GAPDH). For qPCR of miRNAs, miRNA was converted to cDNA using the TaqMan MicroRNA Reverse Transcription Kit (Applied Biosystems). RNU6B small nuclear RNA was amplified as an internal control. qPCR was performed using each miRNA-specific probe included with the TaqMan MicroRNA Assay on a Real-Time PCR System 7300 and SDS software (Applied Biosystems).
(§3) Transfection with synthetic miRNAs, LNAs, and siRNAs. […]

[5] = test system: CD133^high SaOS2 and HOS cells; assay: cell proliferation after LNA transfection; format: cell-based, human; conditions: day 4 after transfection
Experimental: (§4) Cell proliferation and cytotoxity assay. Cell proliferation rates and cell viability as an indicator for the relative sensitivity of the cells to doxorubicin, cisplatin, and methotrexate were determined using TetraColor ONE Cell proliferation Assay System (Seikagaku) according to the manufacturer's instructions. Cells growing in the logarithmic phase were seeded in 96-well plates (5×10^3/well), allowed to attach overnight, and then were treated with varying doses of doxorubicin (Sigma), cisplatin (Alexis), and methotrexate (Sigma) for 72 h. Triplicate wells were used for each treatment group. Absorbance was measured at 450 nm with a reference wavelength at 650 nm on EnVision (Wallac). The relative number of viable cells was expressed as the percent of cell viability.
as §3

[6] = test system: CD133^high cells; assay: cytotoxicity assay (drug sensitivity) after LNA transfection; format: cell-based, human; conditions: DOX 0.4 μM or CDDP 5 μM, 48 h, 24 h after transfection
Experimental: as §4, with “Cells growing in the logarithmic phase were seeded in 96-well plates (5×10^3/well), allowed to attach overnight, and then were treated with varying doses of doxorubicin (Sigma), cisplatin (Alexis), and methotrexate (Sigma) for 72 h.” left out
(§5) Transfection with synthetic miRNAs, LNAs, and siRNAs. Synthetic hsa-miRs (Pre-miR-hsa-miR-1, -10b, -133a, and negative control (NC; Applied Biosystems, Table 2) and locked nucleic acids (LNAs) (LNA-1, -10b, -133a, and negative control, Exiqon, Table 3) were transfected into each type of cells at 30 nM each (final concentration) using DharmaFECT 1(GE Healthcare). Synthetic siRNAs (Bonac corporation, Table 4) were transfected into each type of cells at 100 nM each (final concentration) using DharmaFECT 1 (GE Healthcare). After 24 hours of incubation, cells were treated with chemotherapeutic agents for cytotoxicity assay or reseeded into invasion chambers for invasion assay.

[7] = test system: CD133^high cells; assay: apoptotic cell count (Hoechst staining) after LNA transfection; format: cell-based, human; conditions: compared to control CD133high cells; CDDP 5 μM, 48 h
[8] = test system: CD133^high SaOS2 and HOS populations; assay: invasion assay after LNA transfection; format: cell-based, human
Experimental: Invasion assay. Invasion assays were performed by using 24-well BD BioCoat Invasion Chambers with Matrigel (Becton-Dickinson). 1×10^5 cells, suspended in 500 μL DMEM or RPMI 1640 medium without FBS, were added to the upper chamber, and DMEM or RPMI 1640 medium with 10% FBS was added to the lower chamber. After incubation for 24 h or 36 h, the cells on the upper surface of the filter were completely removed by wiping them with cotton swabs. The filters were fixed in methanol and stained with 1% toluidine blue in 1% sodium tetraborate (Sysmex). Filters were then mounted onto slides, and cells on lower surfaces were counted. Each assay was performed in triplicate.
as §5

[9] = test system: CD133^high cells; assay: qPCR of genes associated with stemness, drug resistance and metastasis after LNA transfection; format: cell-based, human; conditions: β-actin internal control
Description: as §2, §3

[10] = test system: SGMS2; assay: SGMS2 mRNA in 143B-luc tumors of LNA-133a-treated mice; format: in vivo, human
Description: as §2
Monitoring tumor growth, lung metastasis, and toxicity with/without LAN-anti-miR-133a. […] Ten minutes later, photons from firefly luciferase were counted using the IVIS imaging system (Xenogen Corp.) according to the manufacturer's instructions. […] The development of subsequent lung metastasis was monitored once a week in vivo by the bioluminescent imaging described above for 5 weeks. All data were analyzed using LivingImage software (version 2.50, Xenogen). […]

LNA-133a: locked nucleic acid antisense to hsa-miR-133a-1, 5′-CAGCTGGTTGAAGGGGACCAA-3′ (Exiqon) (LNA-modified oligonucleotide from Exiqon, pattern not given here)
Luminescence of lung (mean) ([1]; IVIS bioluminescence): 1744
Lung metastasis (mice with metastasis / mice in group) ([1]; day 35): 7/10
Tumor weight (mean) ([1]; day 36, LNA-133a 10 mg kg-1 i.v., CDDP i.p.): 3.143 g
toxic effects on various tissue including heart, liver, and skeletal muscle [2]: minimal toxic effects
expression of miR-133a of tumors [3]: reduced miR-133a levels; also recorded: decreased
efficacy for the silencing of miR-133a [4]: confirmed; also recorded: knock-down
proliferation rate [5]: suppressed in proliferation rate to the same level of CD133^low cells transfected with LNA-NC
sensitivity to DOX and CDDP (cell viability) [6]: enhanced sensitivity to DOX and CDDP
apoptotic cell death rate [7]: significantly higher apoptotic cell death rate
invasiveness [8]: decreased the invasiveness
expression of the molecules associated with CD133high phenotypes [9]: decreased
expression of mRNA for SGMS2 [10]: increased expression
